The text below walks through data of patent US6855695B2, “Water-soluble SHPs as novel alkylating agents” (Vion Pharmaceuticals, Inc., priority 2003, dated 2005).

In series [1] the test system is B16-F10 murine melanoma. In words: In vivo anti-tumor activity, B16-F10 murine melanoma implanted subcutaneously in C57BL/6 mice. The following applies: for Tumor growth inhibition on Day 24: ip weekly for four weeks from Day 2, 80 mg/kg VNP40101M, equal molar doses of prodrugs. How it is done:
(§1) The anti-tumor effects of VNP40101 M and prodrugs, including PAP-101M (19), OAP-101M (20a), PAP-Na-101M (21), and OAP-Na-101M (22a), were evaluated in both the B16-F10 murine melanoma and HTB177 human lung carcinoma models. B16-F10 melanoma cells were implanted subcutaneously (5×10^5 cells) into C57BL/6 mice, which were randomized into groups of ten immediately after tumor cell implantation (Day 0). On Day 2, mice were injected intraperitoneally with either a bolus injection of 0.1 mL PBS or drug. The treatment was carried out weekly for four consecutive weeks. Tumor measurement in three dimensions was determined once a week with the formula L×H×W/2, where L, H, and W represent length, height, and width, respectively. […] On Day 24, tumor growth was inhibited by 81% in mice treated with 80 mg/kg of VNP40101M, and by 75 to 91% in mice treated with equal molar doses of the prodrugs. […] The toxicity of these drugs in mice was mild as determined by body weight loss and animal appearance, as illustrated in FIG. 13.

A short description of series [2]: Water-solubility at room temperature. In kind it is physicochemical. Particulars: thermodynamic from solid; for solubility: determined visually by incremental addition, not at equilibrium. The method, then: The solubility of the newly synthesized SHPs (19, 20a, 21, and 22a) is much higher than that of VNP40101 M, as shown in Table 1.
For the free phosphoric acid 19 and 20a, an excess amount of the drug was placed in a glass vial containing 2.0 mL of water. The vials were shaken in a Glas Col rotary apparatus at room temperature for 24 hours. The suspension containing undissolved drug was centrifuged; the supernatant was carefully separated and analyzed by HPLC for drug concentration. […] Aqueous solutions of 19 and 20a were colorless. Similarly, the solubility of the sodium salts 21 and 22a was determined visually by adding incremental quantities of the drug to 2.0 mL of water in a glass vial. The vials were shaken at room temperature in a Glas Col rotary apparatus until the drug dissolved entirely. Additional fixed quantities of drug were added and the vials shaken until complete dissolution. This process was continued until no more drug dissolved. Compounds 21 and 22a are highly water-soluble. Because of limited drug supplies determination of the solubilities at equilibrium could not be obtained. Solubilities of >0.98 and >1.35 g/mL for 21 and 22a, respectively, were determined.

Series [3] in a line: Stability in 100% human plasma. Type of series: in vitro ADME. Particulars: both sexes, 37° C. The method, then:
(§2) The stability of compounds 19, 20a and VNP40101M was evaluated in 100% human plasma (pooled mixed gender, BioChemed) at a final concentration of 50 μg/mL. Each drug (19 or 20a) was incubated in human plasma at 37° C. for a maximum of two hours. Aliquots of the incubation mixture were taken at various time points and extracted with acetonitrile. The extract was separated by centrifugation and analyzed directly by HPLC. In a similar manner, VNP40101M was incubated in human plasma at 37° C. for a maximum of one hour. At various time points, aliquots of the incubation mixture were removed and extracted with 0.5% H3PO4 in acetonitrile. The extract was separated by centrifugation and analyzed directly by HPLC. For comparison, the stability of each drug incubated in 50 mM Tris buffered saline (pH 7.6) instead of 100% human plasma was also determined.

Series [4] can be described thus: Pharmacokinetic study in rats, single iv bolus, HPLC-UV. Type of series: in vivo, female Sprague-Dawley rats. The following applies: iv bolus 50 mg/kg. The method, then:
Preliminary investigations of the pharmacokinetic profiles of prodrugs 19 and 20a were conducted in female Sprague-Dawley rats (10 weeks old, 250 g, Charles River). Each prodrug was administered as a single bolus intravenous (iv) injection via the jugular vein at a dose of 50 mg per kg (mpk) of body weight. Blood samples were collected on the day of dosing at the following time points: pre-dose and approximately 2, 10, 30 min, 1, 2, and 24 hr, after dosing. At each time point, approximately 0.2 mL of blood was collected in a tube containing an anticoagulant (heparin), which was immediately acidified by adding 0.005 mL of a 2.0 M citric acid solution. Then, the tube was inverted 4 to 6 times and immediately placed on ice. The blood samples were centrifuged within 30 min after blood collection at 3,000 rpm for 10-20 min at 2-8° C., and the plasma fraction was transferred to a labeled Nunc cryovial. The plasma samples were immediately frozen on dry ice and stored at −20° C. until HPLC-UV analysis. Animals were euthanized with CO2 inhalation after experiments.
Bioanalytical methods were developed to quantify these prodrugs in rat plasma using HPLC-UV at either 220 nm or 230 nm. Each plasma sample (0.1 mL) was extracted with 0.2 mL of acetonitrile. The extract was separated by centrifugation and analyzed directly by HPLC-UV. HPLC calibration standards were prepared in control rat plasma and processed as above.
Comparison to VNP101M (10 mpk of radioactive VNP101M was used in previous experiments) is difficult because of the difference in doses used in two the studies.

For series [5], the system named is alkaline phosphatase. In words: In vitro enzymatic bioconversion by alkaline phosphatase. In kind it is in vitro ADME. Particulars: bovine, alkaline phosphatase from bovine intestinal mucosa; approx. 0.055 unit/mL AP in 50 mM Tris buffered saline pH 7.6, 37° C., drug approx. 50 μg/mL. How it is done:
Each drug, at a final concentration of approximately 50 μg/mL, was incubated at 37° C. in 50 mM Tris buffered saline (pH 7.6) containing approximately 0.055 unit/mL of the phosphatase enzyme.
(§3) A control sample of each drug at a final concentration of 50 μg/mL in 50 mM Tris buffered saline (pH 7.6) without AP was also incubated at 37° C. Aliquots of each solution were taken periodically; disappearance of the tested drug was determined by HPLC.

Series [6] in a line: Aqueous stability in potassium phosphate buffers (50 mM), pH 3, 5, 7 and 9, HPLC. Type of series: physicochemical. The following applies: potassium phosphate buffer 50 mM. The method, then: The stabilities of PAP-101M (19), OAP-101M (20a), and VNP40101M were investigated in potassium phosphate buffers (50 mM) at pH 3, 5, 7 and 9 and at room temperature (22-25° C.). One sample was prepared at each pH for each drug; the initial drug concentration in each sample was 50 μg/mL. Each sample was analyzed by HPLC repetitively, at various time points, to determine the
concentration of the respective drug. The first-order kinetic half-lives of each drug were calculated.

Series [7] has as its system HTB177 human lung carcinoma. Description: In vivo anti-tumor activity, HTB177 human lung carcinoma in nu/nu CD-1 mice. The method, then:
as §1

The conditions of series [8]: room temperature, Krishna et al. 2001; cited from earlier work.
Series [9] relates to leukemia cells implanted intracranially. The following applies: Finch et al. 2001; cited from earlier work.
The nature of series [10]: Stability in 50 mM Tris buffered saline pH 7.6 (control without AP or plasma). The following applies: 50 mM Tris buffered saline pH 7.6, 37° C. In kind it is physicochemical. How it is done:
as §3, §2

The mark [11] stands for this setting: female, Sprague-Dawley, rat, plasma.
[12] abbreviates: pH 9, room temperature (22-25° C.), read-out: Half-life, pH 9 (converted).

≈ marks a conversion by molar mass, not a printed value. A value given as a limit tells only on which side of the number the result lay.

By solubility is commonly meant the concentration that dissolves in the medium under given conditions. The term half-life denotes the time in which the quantity being followed falls by half. The term AUC denotes the area under the concentration-time curve, a measure of exposure. A low value points to low exposure. As usually defined, the Cmax is the maximum level reached in the sampled fluid or tissue. In general, clearance refers to a measure of how efficiently the substance is removed, as volume per time. Lower therefore signals inefficient removal. Turning to `CN(Cc1ccccc1OP(=O)(O)O)C(=O)N(N(CCCl)S(C)(=O)=O)S(C)(=O)=O` [OAP-101M (20a), Phosphoric acid mono-{2-{N-[1,2-bis(methylsulfonyl)-2-(2-chloroethyl)-hydrazinylcarbonyl]-N-methylaminomethyl}-phenyl} ester], the “Survival of tumor-bearing mice (FIG. 12)” value in series [1] (B16-F10 tumor-bearing mice, versus other drugs) is reported as “survived longer”. Also, the “Tumor growth inhibition on Day 24” value in series [1] came to 91%. For the same compound, in series [2], the solubility at 24 h turned out to be 46 mg/mL (≈ 93.1 mM). Also, the results for the half-life at 50 μg/mL in [3], in series [5] and in [6] (setting [12]) were 53.3 min, 29 min and 171 days, respectively. In addition, the half-life in [4] (female, Sprague-Dawley, rat, plasma, iv, 50 mg/kg) was roughly 14 min. The AUC in series [4] (setting [11]) was 21900 ng·h/mL. The compound further displayed a Cmax in series [4] (setting [11]) of 239 µg/mL. Also, in series [4] (setting [11]), the clearance turned out to be 37.8 mL/min/kg. In series [4] (female, Sprague-Dawley, rat, plasma, read-out: Vss), the Vd was determined as 0.146 L/kg. Besides, the “Anti-tumor effect in HTB177 human lung carcinoma (FIGS. 14 and 15)” value in series [7] is listed as “holdout promise”.

Turning to `CNC(=O)N(N(CCCl)S(C)(=O)=O)S(C)(=O)=O` [VNP40101M, 1,2-Bis(methylsulfonyl)-1-(2-chloroethyl)-2-(methylaminocarbonyl) hydrazine], the “Tumor growth inhibition on Day 24” value in series [1] came out at 81%. Besides, the half-life at 50 μg/mL in series [3] was 14.5 min; in [6] (pH 5, room temperature (22-25° C.), read-out: Half-life, pH 5 (converted)) it was 118 days; in series [6] (pH 7, room temperature (22-25° C.), read-out: Half-life, pH 7 (converted)) it was 0.508 days; in series [6] (setting [12]), 0.00479 days; in series [10], 20.5 min. Moreover, the Water-solubility in series [8] is 0.66 mg/mL. In addition, the Log cell kill in [9] is on record as greater than 6.54 log cell kill.

Consider `CN(Cc1ccccc1OP(=O)([O-])[O-])C(=O)N(N(CCCl)S(C)(=O)=O)S(C)(=O)=O.[Na+].[Na+]` [OAP-Na-101M (22a), Phosphoric acid 2-{N-[1,2-bis(methylsulfonyl)-2-(2-chloroethyl)-hydrazinylcarbonyl]-N-methylaminomethyl}-phenyl ester disodium salt], for which, in series [1], the “Tumor growth inhibition on Day 24” value is listed as 89.5%. Further, in [2], the solubility at 24 h is greater than 1350 mg/mL and the solubility is greater than 1350 mg/mL. For the same compound, the “Anti-tumor effect in HTB177 human lung carcinoma (FIGS. 14 and 15)” value in series [7] was “holdout promise”.

Take `CN(Cc1ccc(OP(=O)([O-])[O-])cc1)C(=O)N(N(CCCl)S(C)(=O)=O)S(C)(=O)=O.[Na+].[Na+]` [PAP-Na-101M (21), Phosphoric acid 4-{N-[1,2-bis(methylsulfonyl)-2-(2-chloroethyl)-hydrazinylcarbonyl]-N-methylaminomethyl}-phenyl ester disodium salt]: in series [2], the solubility at 24 h is greater than 980 mg/mL and the solubility is greater than 980 mg/mL.

For `CN(Cc1ccc(OP(=O)(O)O)cc1)C(=O)N(N(CCCl)S(C)(=O)=O)S(C)(=O)=O` [PAP-101M (19), Phosphoric acid mono-{4-{N-[1,2-bis(methylsulfonyl)-2-(2-chloroethyl)-hydrazinylcarbonyl]-N-methylaminomethyl}-phenyl} ester], the solubility at 24 h in series [2] is 293 mg/mL (≈ 593 mM). The half-life at 50 μg/mL was 34.3 min in [3] and 21.1 min in series [5]. In addition, the “Pharmacokinetic determination in rat plasma (in words)” value in series [4] is given as “fast conversion or clearance”.
